From ChEMBL document CHEMBL2331295, “Characterization of a selective CaMKII peptide inhibitor” (Eur J Med Chem, 2013) come the findings set out here.

Experiment [1] concerns the target Calcium/calmodulin-dependent protein kinase type II subunit alpha (Homo sapiens) (UniProt Q9UQM7). Nature of the experiment: Inhibition of GFP-tagged CAMK2alpha (unknown origin) expressed in african green monkey Vero cells using syntide2 as substrate assessed as incorporation of 32P at 5 uM after 30 mins by scintillation counting analysis in presence of [gamma32P]ATP relative to control. The format is cell-based.

In a further experiment the test system is H9c2. Put plainly: Inhibition of serum-induced endogenous CAMK2 activation in […] H9C2 cells at 5 uM after 30 mins relative to control. The class given is cell-based.
Experiment [2] addresses T1, Calcium/calmodulin-dependent protein kinase type IV (Homo sapiens) (UniProt Q16566).
T1 sequence (whole entry): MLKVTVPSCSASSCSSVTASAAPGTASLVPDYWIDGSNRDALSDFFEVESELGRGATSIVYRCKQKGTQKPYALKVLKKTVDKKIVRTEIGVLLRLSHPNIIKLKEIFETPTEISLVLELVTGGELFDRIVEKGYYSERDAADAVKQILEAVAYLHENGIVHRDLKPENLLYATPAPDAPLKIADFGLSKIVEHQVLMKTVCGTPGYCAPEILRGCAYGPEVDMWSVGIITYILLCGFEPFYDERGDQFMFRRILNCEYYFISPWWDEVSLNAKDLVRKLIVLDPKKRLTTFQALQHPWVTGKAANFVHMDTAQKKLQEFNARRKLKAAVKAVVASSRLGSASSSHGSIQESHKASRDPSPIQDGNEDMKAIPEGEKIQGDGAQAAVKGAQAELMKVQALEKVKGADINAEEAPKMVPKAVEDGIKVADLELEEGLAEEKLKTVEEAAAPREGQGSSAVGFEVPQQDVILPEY
Put plainly: Inhibition of CAMK4 (unknown origin) using gamma peptide as substrate assessed as incorporation of 32P at 5 uM after 30 mins by scintillation counting analysis in presence of [gamma32P]ATP relative to control.

Experiment [3] concerns the target Calcium/calmodulin-dependent protein kinase type 1 (Homo sapiens) (UniProt Q14012). Put plainly: Inhibition of CAMK1 (unknown origin) using ADR1G as substrate assessed as incorporation of 32P at 5 uM after 30 mins by scintillation counting analysis in presence of [gamma32P]ATP relative to control.

The source made the active and inactive calls. The calls are words filed in the database; no cut-off is given here. Where only a bound is given, the exact number is not on record here.

Chain of Calcium/calmodulin-dependent protein kinase type II subunit alpha (Homo sapiens) (Q9UQM7 whole entry): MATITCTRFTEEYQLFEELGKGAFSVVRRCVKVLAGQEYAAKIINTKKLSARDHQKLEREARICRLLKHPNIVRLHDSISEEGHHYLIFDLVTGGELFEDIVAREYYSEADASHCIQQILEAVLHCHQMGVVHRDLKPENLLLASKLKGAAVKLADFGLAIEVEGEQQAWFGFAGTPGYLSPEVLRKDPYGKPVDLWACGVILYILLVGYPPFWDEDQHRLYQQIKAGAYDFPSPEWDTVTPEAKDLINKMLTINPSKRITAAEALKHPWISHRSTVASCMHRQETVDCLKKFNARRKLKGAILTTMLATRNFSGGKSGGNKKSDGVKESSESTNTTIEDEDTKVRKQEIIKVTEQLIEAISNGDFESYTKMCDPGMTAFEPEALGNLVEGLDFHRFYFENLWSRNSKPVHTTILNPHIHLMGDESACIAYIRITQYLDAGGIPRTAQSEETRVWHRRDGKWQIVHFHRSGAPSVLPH
Chain of Calcium/calmodulin-dependent protein kinase type 1 (Homo sapiens) (Q14012 whole entry, looked up): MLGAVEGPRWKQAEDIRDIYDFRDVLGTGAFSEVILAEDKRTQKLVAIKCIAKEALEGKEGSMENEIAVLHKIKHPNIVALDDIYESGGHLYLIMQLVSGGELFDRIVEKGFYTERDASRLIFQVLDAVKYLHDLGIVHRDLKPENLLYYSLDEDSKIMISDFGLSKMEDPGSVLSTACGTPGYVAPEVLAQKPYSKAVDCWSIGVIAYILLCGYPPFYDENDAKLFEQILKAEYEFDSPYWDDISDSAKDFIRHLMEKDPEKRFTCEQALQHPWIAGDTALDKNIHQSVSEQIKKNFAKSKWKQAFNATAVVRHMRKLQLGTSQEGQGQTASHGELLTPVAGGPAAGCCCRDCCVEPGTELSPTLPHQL

By inhibition is commonly meant the relative decrease from the control value, in per cent. With H-KRPPKLGQIGRSKRVVI-OH, the inhibition in experiment [1] was under 70%.

Consider “H-RQIKIWFQNRRMKWKKGGCKRPPKLGQIGRAKRVVI-OH”, for which the inhibition with H9c2 came to 52%; in experiment [3], 6.1%. The inhibition entry in experiment [2] was “inactive”.
